Reference: patent US9884012B2, “Use of PEDF-derived polypeptides for promoting muscle or tendon regeneration or arteriogenesis” (MacKay Memorial Hospital, priority 2012, dated 2018)
Several values for one entry are separate records, joined by “and”; a condition that tells them apart may be missing. Equal entries are not always repeated. Marks after values point to notes of the source that are not given here.

How the values were obtained:
ischemic hindlimbs = assay: hindlimb ischemia model, laser Doppler perfusion imaging of limb blood perfusion; format: in vivo, C57BL/6 wild-type mice; conditions: for Ischemic/Non-ischemic Perfusion Ratio (%) 7 days: 7 days after surgery, 50 μl sustained-release alginate gel formulation, 10 μM peptide (Bolus: bolus formulation of 29-mer), single intramuscular injection to gracilis muscle; for Ischemic/Non-ischemic Perfusion Ratio (%) 21 days: 21 days after surgery; for Ischemic/Non-ischemic Perfusion Ratio (%) 21 days / Ischemic/Non-ischemic Perfusion Ratio (%) 28 days: sustained-release formulation (Bolus: bolus 29-mer), single intramuscular injection; for Ischemic/Non-ischemic Perfusion Ratio (%) 28 days: 28 days (four weeks) after surgery; for Ischemic/Non-ischemic Perfusion Ratio (%) Pre OP: before surgery (baseline); for Ischemic/Non-ischemic Perfusion Ratio (%) Pre OP / Ischemic/Non-ischemic Perfusion Ratio (%) Post OP: LDPI; for Ischemic/Non-ischemic Perfusion Ratio (%) Post OP: immediately after surgery
Description: (§1) 6-week-old female C57BL/6 wild-type mice were anesthetized by an intraperitoneal injection of a mixture of zoletil (6 mg/kg) and xylazine (3 mg/kg). Hair was removed from the hindquarter with a depilating cream. To establish hindlimb ischemia, unilateral external iliac and femoral arteries and veins were ligated, cut, and excised. After surgery, the mice were randomly assigned to several experimental groups (n=6, each group) and treated as follows. In the blank control group, the mice were treated with 50 μl of blank alginate gel, whereas in the bolus control group, the mice received the bolus formulation containing 29-mer. In the PEDF peptide/alginate gel treatment groups, the mice received 50 μl of the sustained-release formulation, which comprised either 29-mer, 24-mer, or 20-mer. Additionally, in a PEDF 18-mer control group, mice were treated with a sustained-release formulation containing a PEDF 18-mer peptide. Treatments were applied by way of a single intramuscular injection to the gracilis muscle immediately after femoral artery and vein excision operation. The incision was closed after the wound was irrigated with sterile saline.
A laser Doppler perfusion imaging (LDPI) analyzer (Moor Instruments, USA) was used to quantify hindlimb blood perfusion before surgery (pre OP), immediately after surgery (post OP), and over time after surgery. To minimize vasoconstriction by anesthetic heat loss, animals were kept on a heating plate at 37° C. for 5 min before measurement. Representative LDPI images illustrating the blood perfusion of ischemic hindlimbs over a time period of 4 weeks were provided in FIG. 2 in which dark blue color represents low blood flow. Blood perfusion is expressed as LDPI index representing the ratio of operated (ischemic) versus non-operated (non-ischemic) limb blood flow of the same mouse, and the results were summarized in FIG. 3 and Table 1 (n 6).

tendo Achilles = tendo Achilles injury model, histology and collagen in regenerated area; format: in vivo, Sprague-Dawley rats; conditions: three weeks after tendon injury; for Collagen in Regenerated Area (%): 150 μl sustained-release formulation (Bolus: bolus 29-mer) subcutaneously near tendon lesion
Description: De-paraffinized tendon tissue sections were stained using Masson's Trichrome according to the manufacturer's instructions. For semi-quantitative analysis of collagen area, 10 fields from each slide were randomly selected under a light microscope, and the repairing area per intact tendon area of the cross section (mm^2/mm^2) was measured using the Image-Pro Plus 4.5.1 system.
To investigate the effects of the present PEDF peptides on tendon regeneration, a rat model with tendon injury was established as follows. Adult 10-week-old male Sprague-Dawley rats (total n=50; initial body weight=312±11 g) were anesthetized by an intraperitoneal injection of a xylazine (10 mg/kg). Then, the left tendo Achilles injury was created by full-thickness insertion of an 18-gauge needle through tendo Achilles 1 cm proximal to its insertion into the calcaneum. This created a horizontal (transaction) wound which was flanked by intact tendon tissue on both sides to prevent the retraction of severed ends.
The rats were randomly assigned (n=10/group) to five experimental groups and treated as follows. In the blank control group, the mice were treated with 150 μl of blank alginate gel. For the bolus control group, 150 μl of the bolus formulation (29-mer) was administered. In the treatments groups, the mice received 150 μl of the sustained-release formulation (29-mer, 24-mer, or 20-mer). Treatments were injected subcutaneously near tendon lesion immediately after the injury, and the incision was closed after the wound was irrigated with sterile saline.
Three weeks after tendon injury, histologic analysis was performed to observe the healing of the tendon. As could be seen in the upper panel of FIG. 10, in animals treated with blank control, a broad band of disorganized fibrous scar was formed between the two cut ends, and the pink stained collagen bundle was minimal in the scar tissue. […] Also, the fibrous tissue in the scar was more organized and in parallel direction in the 29-mer treatment group.
Quantitative analysis was also performed to assess the percentage of collagen (%) in the regenerated area, and results were summarized in Table 7.

aortic ring explants = assay: rat aortic ring sprouting assay (ex vivo neovessel sprouting); format: cell-based; conditions: day 4; 50 ng/ml PEDF peptide, 50 ng/ml VEGF-A, 20 ng/ml FGF-2; MCDB131, 1% FBS, Matrigel
Description: To further confirm the neovessel development promoted by PEDF peptides, rat aortic ring sprouting assay was performed. Thoracic aortas were removed from euthanized rats and gently stripped of peri-aortic fibroadipose tissue. Aortas were sectioned into about 2-mm length rings, which were then embedded in a growth factor-reduced Matrigel. Gels containing the aortic rings were polymerized in 12-well plates incubated at 37° C. for 30 minutes. 1 ml of MCDB131 medium supplemented with 100 units/ml penicillin and […] streptomycin, 1% FBS, and a supplemental agent (50 ng/ml VEGF-A, 20 ng/ml FGF-2, or 50 ng/ml 29-mer, 24-mer, 20-mer, Mo 29-mer, Mo 20-mer, 25-mer, or 18-mer) were added to the Matrigel-containing explants. The cultures were propagated at 37° C. in a humidified incubator for up to 4 days, with media changes every other day. Neovessel sprouting was assessed until day 4 using an inverted microscope platform (Leica) with bright-field optics; representative photographs were provided in FIG. 6. Quantification of neovessel sprouting was assessed using Image-Pro Plus 6.0 software (Dendrites program). The experiment was repeated in triplicate.

[1] = test system: adductor magnus muscle arterioles; assay: hindlimb ischemia model, arteriole density (α-SMA) in adductor magnus muscle; format: in vivo, C57BL/6 wild-type mice; conditions: two weeks after surgery, sustained-release formulation (Bolus: bolus 29-mer)
Description: The small artery densities (α-SMA positive cells surrounding the whole circumference of the vessel) were measured and images were taken from 10 randomly-selected areas of adductor magnus muscle (200× magnification) in each sample, and blinded quantification was performed in triplicate by manually counting within each section; values from five sections were then averaged and expressed as arteriole density per mm^2.
as §1
To investigate the arteriogenic effect of the present sustained-release formulation, adductor magnus muscles (located at the same level as femoral artery excision and in which arteriogenesis responsible for establishing collateral circulation is expected to be found) were harvested from animals in each experimental condition, two weeks after the surgery. Arterioles in muscle cross sections were identified by immunohistological staining for vascular smooth muscle cells (α-SMA; brown), and nuclei were labeled with hematoxylin; representative photographs were provided in FIG. 5. Quantitative analysis was also performed and the results were summarized in Table 3, and the data were expressed as α-SMA-positive arterioles per mm^2 in the peri-injury region.

Row | Sequence | Ischemic/Non-ischemic Perfusion Ratio (%) 7 days (ischemic hindlimbs) [%] | Ischemic/Non-ischemic Perfusion Ratio (%) 21 days (ischemic hindlimbs) [%] | Ischemic/Non-ischemic Perfusion Ratio (%) 28 days (ischemic hindlimbs) | Ischemic/Non-ischemic Perfusion Ratio (%) Pre OP (ischemic hindlimbs) [%] | Ischemic/Non-ischemic Perfusion Ratio (%) Post OP (ischemic hindlimbs) [%] | Collagen in Regenerated Area (%) (tendo Achilles) | Neovessel Sprouting Fold (aortic ring explants) | Arteriole Density per mm^2 (α-SMA-positive arterioles) [1] [per mm^2] | tendon healing, histology of cut ends (tendo Achilles; sustained-release formulation, in words)
1 | SLGAEQRTESIIHRALYYDL [20-mer, synthetic peptide corresponding to residues 93-112 of human PEDF] | 43.3 ± 7.2 | 75.5 ± 5.2 | 93% and 92.7 ± 3.0 % | 98.0 ± 7.8 | 4.6 ± 0.64 | 82.01 ± 6.55 | 6.5* fold of untreated aortic ring | 10.7 ± 1.2 | 
2 | SLGAEQRTESIIHRALYYDLISSP [24-mer, synthetic peptide corresponding to residues 93-116 of human PEDF] | 53.1 ± 0.37 | 86.1 ± 5.9 | 92% and 91.8 ± 5.5 % | 91.5 ± 5.6 | 8.0 ± 0.03 | 85.75 ± 2.56 | 6.2* fold of untreated aortic ring | 10.0 ± 0.58 | 
3 | SLGAEQRTESIIHRALYYDLISSPDIHGT [29-mer, synthetic peptide corresponding to residues 93-121 of human PEDF] | 44.8 ± 2.0 | 101 ± 7.0 | 105% and 105 ± 4.8 % | 108.2 ± 8.8 | 7.0 ± 3.1 | 88.75 ± 1.89 | 5.6* fold of untreated aortic ring | 11.7 ± 1.5 | healed with much lesser scar tissue
